Experimental data reported in patent publication US20060270628A1, “Antiinfective 1,2,3-triazole derivatives, process for their preparation and pharmaceutical compositions containing them” (priority 2003, published 2006).
Values after ≈ are worked out from the molar mass of the structure shown. Each block holds one compound with its values, some of them ahead of it.

What was measured:
[1] = test system: Enterococcus faecalis NCTC 12201 (DRCC 153, R); assay: MIC by broth microdilution, Enterococcus sp 153 R; assay type: cell-based; settings: NCTC12201, Enterococcus DRCC 153 (E. faecalis NCTC 12201), read-out: Antimicrobial Screening (MIC) Enterococcus sp 153 R
Method: (§1) Minimum Inhibiton Concentrations (MICs) were determined by broth microdilution technique as per the guidelines prescribed in the fifth edition of Approved Standards, NCCLS document M7-A5 Vol 20-No 2, 2000 Villinova, Pa.
(§2) Initial stock solution of the test compound was prepared in DMSO. Subsequent two fold dilutions were carried out in sterile Mueller Hinton Broth (Difco) (MHB).
(§3) Frozen cultures stocks were inoculated into 50 ml sterile MHB in 250 ml Erlyn Meyer flasks. • Composition of MHB is as follows: • Beef Extract Powder—2.0 grams/litre • Acid Digest of Casein—17.5 grams/litre • Soluble Starch—1.5 grams/litre • Final pH 7.3±0.1
(§4) Flasks were incubated for 4 to 5 hours at 35° C. on a rotary shaker at 150 rpm. Inoculum was prepared by diluting the culture in sterile MHB to obtain a turbidity of 0.5 McFarland standard. This corresponds to 1-2×10^8 CFU/ml. The stock was further diluted in sterile broth to obtain 1-2×10^6 CFU/ml. 50 μl of the above diluted inoculum was added from 1-10 wells. The plates were incubated overnight at 37° C.

[2] = test system: Staphylococcus aureus ATCC 49951 (DRCC 213, Smith S); assay: MIC by broth microdilution, Staphylococcus aureus 213 Smith S; assay type: cell-based; settings: ATCC49951, Staphylococcus aureus DRCC 213 (ATCC 49951), read-out: Antimicrobial Screening (MIC) Staphylococcus aureus 213 Smith S
Method: as §1, §2, §3, §4

[3] = test system: Enterococcus faecalis ATCC 29212 (DRCC 034, S); assay: MIC by broth microdilution, Enterococcus sp 034 S; assay type: cell-based; settings: ATCC29212, Enterococcus DRCC 034 (E. faecalis ATCC 29212), read-out: Antimicrobial Screening (MIC) Enterococcus sp 034 S
Method: as §1, §2, §3, §4

[4] = test system: Staphylococcus aureus ATCC 33591 (DRCC 019, MRSA); assay: MIC by broth microdilution, Staphylococcus aureus 019 MRSA; assay type: cell-based; settings: Staphylococcus aureus DRCC 019 (ATCC 33591), read-out: Antimicrobial Screening (MIC) Staphylococcus aureus 019 MRSA
Method: as §1, §2, §3, §4

[5] = test system: Salmonella TA97; assay: MIC by broth microdilution, Salmonella TA97; assay type: cell-based; settings: read-out: Antimicrobial Screening (MIC) Salmonella TA97
Method: as §1, §2, §3, §4

[6] = test system: Staphylococcus aureus ATCC 29213 (DRCC 035, S); assay: MIC by broth microdilution, Staphylococcus aureus 035 S; assay type: cell-based; settings: ATCC29213, Staphylococcus aureus DRCC 035 (ATCC 29213), read-out: Antimicrobial Screening (MIC) Staphylococcus aureus 035 S
Method: as §1, §2, §3, §4

[7] = test system: Mycobacterium MTCC006; assay: MIC by broth microdilution, Mycobacterium MTCC006; assay type: cell-based; settings: read-out: Antimicrobial Screening (MIC) Mycobacterium MTCC006
Method: as §1, §2, §3, §4

[8] = test system: Enterococcus faecium NCTC 12202 (DRCC 154, R); assay: MIC by broth microdilution, Enterococcus sp 154 R; assay type: cell-based; settings: NCTC12202, Enterococcus DRCC 154 (E. faecium NCTC 12202), read-out: Antimicrobial Screening (MIC) Enterococcus sp 154 R
Method: as §1, §2, §3, §4

- melting point: 185 °C
SMILES: CC(=S)NCc1cn(-c2ccc(-n3ccnc3)c(F)c2)nn1 [Example 24, N-[1-(3-Fluoro-4-imidazol-1-yl-phenyl)-1H-[1,2,3]triazol-4-ylmethyl]-thioacetamide]

SMILES: COC(=S)NCc1cn(-c2ccc(-n3cncn3)c(F)c2)nn1 [Example 20, [1-(3-Fluoro-4-[1,2,4]triazol-1-yl-phenyl)-1H-[1,2,3]triazol-4-yl-methyl]-thiocarbamic acid O-methyl ester]
- MIC [1]: 32 µg/mL (≈ 96 µM)
- MIC [2]: 16 µg/mL (≈ 48 µM)
- MIC [3]: 32 µg/mL (≈ 96 µM)
- MIC [4]: 8 µg/mL (≈ 24 µM)
- melting point: 179 °C
- MIC [5]: 32 µg/mL (≈ 96 µM)
- MIC [6]: 16 µg/mL (≈ 48 µM)
- MIC [7]: 16 µg/mL (≈ 48 µM)
- MIC [8]: 32 µg/mL (≈ 96 µM)

SMILES: COC(=S)NCc1cn(-c2cc(F)c(-n3ccnc3)c(F)c2)nn1 [Example 9, [1-(3,5-Difluoro-4-imidazol-1-yl-phenyl)-1H-[1,2,3]triazol-4-ylmethyl]-thiocarbamic acid O-methyl ester]
- MIC [1]: 1 µg/mL (≈ 2.85 µM)
- MIC [2]: 1 µg/mL (≈ 2.85 µM)
- MIC [3]: 2 µg/mL (≈ 5.71 µM)
- MIC [4]: 1 µg/mL (≈ 2.85 µM)
- melting point: 180 °C
- MIC [5]: 32 µg/mL (≈ 91.3 µM)
- MIC [6]: 1 µg/mL (≈ 2.85 µM)
- MIC [7]: 4 µg/mL (≈ 11.4 µM)
- MIC [8]: 2 µg/mL (≈ 5.71 µM)

SMILES: COC(=S)NCc1cn(-c2ccc(-n3cnc(CO)c3)c(F)c2)nn1 [Example 27, {1-[3-Fluoro-4-(4-hydroxymethyl-imidazol-1-yl)-phenyl]-1H-[1,2,3]triazol-4-ylmethyl}-thiocarbamic acid O-methyl ester]
- MIC [1]: 1 µg/mL (≈ 2.76 µM)
- MIC [2]: 1 µg/mL (≈ 2.76 µM)
- MIC [3]: 2 µg/mL (≈ 5.52 µM)
- MIC [4]: 1 µg/mL (≈ 2.76 µM)
- melting point: 179 °C
- MIC [5]: 32 µg/mL (≈ 88.3 µM)
- MIC [6]: 1 µg/mL (≈ 2.76 µM)
- MIC [7]: 16 µg/mL (≈ 44.2 µM)
- MIC [8]: 2 µg/mL (≈ 5.52 µM)

- melting point: 223 °C
SMILES: CC(=O)NCc1cn(-c2ccc(-n3cncn3)c(F)c2)nn1 [Example 25, N-[1-(3-Fluoro-4-[1,2,4]triazol-1-yl-phenyl)-1H-[1,2,3]triazol-4-ylmethyl]-acetamide]

- melting point: 150 °C
SMILES: COC(=S)NCc1cn(-c2ccc(-n3cccc3)cc2)nn1 [Example 1, [1-(4-Pyrrol-1-yl-phenyl)-1H-[1,2,3]triazol-4-ylmethyl]-thiocarbamic acid O-methyl ester]

- melting point: 210 to 215 °C
SMILES: CC(=O)NCc1cn(-c2ccc(-n3cccc3)c(F)c2)nn1 [Example 22, N-[1-(3-Fluoro-4-pyrrol-1-yl-phenyl)-1H-[1,2,3]triazol-4-ylmethyl]-acetamide]

- melting point: 165 to 167 °C
SMILES: COC(=S)NCc1cn(-c2ccc(-n3ccnc3)c(F)c2)nn1 [Example 10, [1-(3-Fluoro-4-imidazol-1-yl-phenyl)-1H-[1,2,3]triazol-4-ylmethyl]-thiocarbamic acid O-methyl ester]

SMILES: COC(=S)NCc1cn(-c2cc(F)c(-n3ccc(C#N)c3)c(F)c2)nn1 [Example 8, {1-[4-(3-Cyano-pyrrol-1-yl)-3,5-difluoro-phenyl]-1H-[1,2,3]triazol-4-ylmethyl}-thiocarbamic acid O-methyl ester]
- MIC [1]: 0.5 µg/mL (≈ 1.34 µM)
- MIC [2]: 0.5 µg/mL (≈ 1.34 µM)
- MIC [3]: 0.5 µg/mL (≈ 1.34 µM)
- MIC [4]: 0.5 µg/mL (≈ 1.34 µM)
- MIC [5]: 32 µg/mL (≈ 85.5 µM)
- MIC [6]: 1 µg/mL (≈ 2.67 µM)
- MIC [7]: 32 µg/mL (≈ 85.5 µM)
- MIC [8]: 0.5 µg/mL (≈ 1.34 µM)

- melting point: 160 to 162 °C
SMILES: COC(=S)NCc1cn(-c2ccc(-n3ccc(C=O)c3)cc2)nn1 [Example 2, {1-[4-(3-Formyl-pyrrol-1-yl)-phenyl]-1H-[1,2,3]triazol-4-ylmethyl}-thiocarbamic acid O methyl ester]
